Source: patent US9604982B2, “P2X7 modulators” (Janssen Pharmaceutica NV, priority 2013, dated 2017)
Read-outs that look alike come from different tables or passages of the source.

Experiments:
[1] = biological target: recombinant rat P2X7 channel (Rattus norvegicus (Rat), UniProt Q64663); experiment: Ca2+ flux (FLIPR) in 1321N1 cells expressing recombinant rat P2X7 channel; type: cell-based; details: Table 3 (additional runs); 250 μM BzATP
Protocol: (§1) P2X7 Antagonism in Recombinant Human P2X7 Cells or Recombinant Rat P2X7 Cells: (a) Ca^2+ Flux and (b) Radioligand Binding
(§2) (a) Ca^2+ flux: 1321N1 cells expressing the recombinant human or rat P2X7 channel was cultured in HyQ DME/(HyClone/Dulbecco's Modified Eagle Medium) high glucose supplemented with 10% Fetal Bovine Serum (FBS) and appropriate selection marker. Cells were seeded at a density of 25000 cells/well (96-well clear bottom black walled plates) in 100 μl volume/well. On the day of the experiment, cell plates were washed with assay buffer, containing (in mM): 130 NaCl, 2 KCl, 1 CaCl2, 1 MgCl2, 10 HEPES, 5 glucose; pH 7.40 and 300 mOs. After the wash, cells were loaded with the Calcium-4 dye (Molecular Device) and incubated in the dark for 60 minutes. Test compounds were prepared at 250× the test concentration in neat DMSO. Intermediate 96-well compound plates were prepared by transferring 1.2 μL of the compound into 300 μL of assay buffer. A further 3× dilution occurred when transferring 50 μL/well of the compound plate to 100 μL/well in the cell plate. Cells were incubated with test compounds and dye for 30 minutes. […] The fluorescence change was measured 180 seconds after adding the agonist.

P2X7 [2] = biological target: T1, P2X7 (Homo sapiens (Human), UniProt Q99572); experiment: Radioligand binding, human P2X7-1321N1 cell membranes, tracer tritiated A-804598; details: Table 3 (additional runs)
T1 sequence (Q99572 whole entry): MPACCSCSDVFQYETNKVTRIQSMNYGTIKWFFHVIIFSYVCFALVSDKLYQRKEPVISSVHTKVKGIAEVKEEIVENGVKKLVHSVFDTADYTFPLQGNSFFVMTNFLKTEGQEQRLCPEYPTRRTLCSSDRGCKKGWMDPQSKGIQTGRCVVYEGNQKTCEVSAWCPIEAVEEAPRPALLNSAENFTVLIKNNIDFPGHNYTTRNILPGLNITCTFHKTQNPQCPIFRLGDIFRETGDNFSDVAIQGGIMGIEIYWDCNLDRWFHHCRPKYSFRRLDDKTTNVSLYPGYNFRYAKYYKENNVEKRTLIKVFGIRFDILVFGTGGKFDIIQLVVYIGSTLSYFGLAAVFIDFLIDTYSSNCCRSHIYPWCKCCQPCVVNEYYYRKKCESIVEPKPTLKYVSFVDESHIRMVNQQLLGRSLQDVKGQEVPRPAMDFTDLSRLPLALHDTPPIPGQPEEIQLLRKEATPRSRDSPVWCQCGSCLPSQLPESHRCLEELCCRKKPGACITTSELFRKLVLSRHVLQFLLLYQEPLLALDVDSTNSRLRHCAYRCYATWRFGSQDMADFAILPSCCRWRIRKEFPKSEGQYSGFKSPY
Protocol: as §1
On the day of the experiment, cell membrane preparations were made according to standard published methods. […] The compound can be prepared as described in the literature. […] The assay was terminated by filtration (GF/B filters pre-soaked with 0.3% PEI) and washed with washing buffer (Tris-HCl 50 mM). The IC50 generated in the binding assay was corrected for tracer concentration and affinity of the tracer to derive at the affinity (K) of the test compounds. […] Data are analyzed and graphed on Graphpad Prism 5.

P2X7 [3] = biological target: T1, P2X7; experiment: P2X7 antagonism in human peripheral blood mononuclear cells (PBMCs), IL-1β release after LPS + Bz-ATP (ELISA); type: cell-based; details: 0.5 mM Bz-ATP; for remaining activity at 10 µM: read-out: PBMC 10 μM (% control); for PBMC 10 μM (% control): Table 3 (additional runs)
Protocol: Human blood was collected using a blood donor program. […] Cells were incubated for an additional 1.5 hours. […] Data are analyzed and graphed on Graphpad Prism 5. […] The IC50 for each compound is then uploaded into 3DX.

P2X7 [4] = biological target: T1, P2X7; experiment: Ca2+ flux (FLIPR) in 1321N1 cells expressing recombinant human P2X7 channel; type: cell-based; details: Table 3 (additional runs); 250 μM BzATP
Protocol: as §1, §2

[5] = P2X7, Table 3 (additional runs), 10 μM compound

recombinant rat P2X7 channel, sequence (Q64663 whole entry): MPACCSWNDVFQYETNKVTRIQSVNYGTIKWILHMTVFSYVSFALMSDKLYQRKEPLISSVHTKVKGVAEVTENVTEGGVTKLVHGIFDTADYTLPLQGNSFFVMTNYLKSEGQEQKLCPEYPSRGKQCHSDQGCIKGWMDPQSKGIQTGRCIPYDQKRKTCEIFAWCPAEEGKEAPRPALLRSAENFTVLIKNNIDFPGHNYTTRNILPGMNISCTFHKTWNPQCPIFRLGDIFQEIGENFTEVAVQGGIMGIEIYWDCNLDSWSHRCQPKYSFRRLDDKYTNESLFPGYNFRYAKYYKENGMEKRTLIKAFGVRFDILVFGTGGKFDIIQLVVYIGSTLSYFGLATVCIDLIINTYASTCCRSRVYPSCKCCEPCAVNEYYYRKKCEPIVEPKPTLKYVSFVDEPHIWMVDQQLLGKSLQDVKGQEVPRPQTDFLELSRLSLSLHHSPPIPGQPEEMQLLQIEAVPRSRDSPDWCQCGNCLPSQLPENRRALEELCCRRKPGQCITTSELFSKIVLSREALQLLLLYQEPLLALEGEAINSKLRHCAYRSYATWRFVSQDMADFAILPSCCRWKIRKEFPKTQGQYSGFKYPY

IC50 [1] [µM] | remaining activity at 10 µM (P2X7 [3]; [5]) [%] | remaining activity at 10 µM (P2X7 [3]; P2X7, Table 2, 10 μM compound) [%] | SMILES | other results
0.2 | – | – | Cc1nc2c(c(-c3ccn[nH]3)n1)C[C@@H](C)N(C(=O)c1cccc(F)c1Cl)C2 (single isomer, unassigned) [Example 144, (R*)-(2-chloro-3-fluorophenyl)(2,6-dimethyl-4-(1H-pyrazol-5-yl)-5,6-dihydropyrido[3,4-d]pyrimidin-7(8H)-yl)methanone] | –
– | – | – | Cc1nc2c(c(-c3ccn[nH]3)n1)C[C@H](C)N(C(=O)c1ccc(Cl)cc1F)C2 (single isomer, unassigned) [Example 89, (S*)-(4-chloro-2-fluorophenyl)(2,6-dimethyl-4-(1H-pyrazol-5-yl)-5,6-dihydropyrido[3,4-d]pyrimidin-7(8H)-yl)methanone] | Ki (P2X7 [2]): 0.0077 µM
> 10 | -0.8 | – | COc1cccc(C(=O)N2Cc3nc(C)nc(-c4ccn[nH]4)c3CC2C)c1C (stereo not shown) [Example 146, (2,6-dimethyl-4-(1H-pyrazol-5-yl)-5,6-dihydropyrido[3,4-d]pyrimidin-7(8H)-yl)(3-methoxy-2-methylphenyl)methanone] | IC50 (P2X7 [4]): 1.06 µM
0.0522 | 11.9 | – | Cc1nc2c(c(-c3ccn[nH]3)n1)CC(C)N(C(=O)c1cccc(F)c1Cl)C2 (stereo not shown) [Example 143, (2-chloro-3-fluorophenyl)(2,6-dimethyl-4-(1H-pyrazol-5-yl)-5,6-dihydropyrido[3,4-d]pyrimidin-7(8H)-yl)methanone] | –
– | – | 4 | CCc1nc2c(c(-c3ccn[nH]3)n1)C[C@H](C)N(C(=O)c1cccc(C(F)(F)F)c1Cl)C2 (single isomer, unassigned) [Example 100, (S*)-(2-chloro-3-(trifluoromethyl)phenyl)(2-ethyl-6-methyl-4-(1H-pyrazol-5-yl)-5,6-dihydropyrido[3,4-d]pyrimidin-7(8H)-yl)methanone] | PBMC 10 μM (% control) (P2X7 [3]; 10 μM compound): 4.0 % control
– | – | 14.3 | Cc1nc2c(c(-c3ccn[nH]3)n1)C[C@H](C)N(C(=O)c1cccc(C(F)(F)F)c1F)C2 (single isomer, unassigned) [Example 76, (S*)-(2,6-dimethyl-4-(1H-pyrazol-5-yl)-5,6-dihydropyrido[3,4-d]pyrimidin-7(8H)-yl)(2-fluoro-3-(trifluoromethyl)phenyl)methanone] | –
– | – | 71.8 | Cc1nc2c(c(-c3ccn[nH]3)n1)C[C@@H](C)N(C(=O)c1ccc(F)cc1F)C2 (single isomer, unassigned) [Example 94, (R*)-(2,4-difluorophenyl)(2,6-dimethyl-4-(1H-pyrazol-5-yl)-5,6-dihydropyrido[3,4-d]pyrimidin-7(8H)-yl)methanone] | –
– | – | -6.2 | Cc1nc2c(c(-c3ccn[nH]3)n1)C[C@H](C)N(C(=O)c1cccc(Cl)c1Cl)C2 (single isomer, unassigned) [Example 69, (S*)-(2,3-dichlorophenyl)(2,6-dimethyl-4-(1H-pyrazol-5-yl)-5,6-dihydropyrido[3,4-d]pyrimidin-7(8H)-yl)methanone] | PBMC 10 μM (% control) (P2X7 [3]; 10 μM compound): −6.2 % control
1.46 | 2 | – | Cc1nc2c(c(-c3ccn[nH]3)n1)CC(C)N(C(=O)c1cccc(OC(F)(F)F)c1F)C2 (stereo not shown) [Example 139, (2,6-dimethyl-4-(1H-pyrazol-5-yl)-5,6-dihydropyrido[3,4-d]pyrimidin-7(8H)-yl)(2-fluoro-3-(trifluoromethoxy)phenyl)methanone] | –
– | – | -6.1 | Cc1nc2c(c(-c3ccn[nH]3)n1)C[C@@H](C)N(C(=O)c1ccc(F)c(C(F)(F)F)c1Cl)C2 (single isomer, unassigned) [Example 66, (R*)-(2-chloro-4-fluoro-3-(trifluoromethyl)phenyl)(2,6-dimethyl-4-(1H-pyrazol-5-yl)-5,6-dihydropyrido[3,4-d]pyrimidin-7(8H)-yl)methanone] | PBMC 10 μM (% control) (P2X7 [3]; 10 μM compound): −6.1 % control
12.4 | – | – | Cc1nc2c(c(-c3ccn[nH]3)n1)C[C@@H](C)N(C(=O)c1cccc(OC(F)(F)F)c1)C2 (single isomer, unassigned) [Example 141, (R*)-(2,6-dimethyl-4-(1H-pyrazol-5-yl)-5,6-dihydropyrido[3,4-d]pyrimidin-7(8H)-yl)(3-(trifluoromethoxy)phenyl)methanone] | IC50 (P2X7 [4]): 9 µM

SMILES | IC50 [1] [µM] | remaining activity at 10 µM (P2X7 [3]; [5]) [%] | remaining activity at 10 µM (P2X7 [3]; P2X7, Table 2, 10 μM compound) [%] | other results
Cc1nc2c(c(-c3ccn[nH]3)n1)CC(C)N(C(=O)c1cccc(OC(F)(F)F)c1)C2 (stereo not shown) [Example 140, (2,6-dimethyl-4-(1H-pyrazol-5-yl)-5,6-dihydropyrido[3,4-d]pyrimidin-7(8H)-yl)(3-(trifluoromethoxy)phenyl)methanone] | 47.3 | 52.5 | – | IC50 (P2X7 [4]): > 10 µM
